From patent US7358276B2, “2-Oxo-1-pyrrolidine derivatives, processes for preparing them and their uses” (UCB, S.A., priority 2000, dated 2008)

How the values were obtained:
[1] = system: audiogenic seizures in sound-susceptible mice; assay: Animal model of sound-susceptible mice (audiogenic seizures); type: in vivo; settings: intraperitoneally 60 minutes before induction of audiogenic seizures; doses given in mol/kg
Source text: The activity of the compounds of formula I, or their pharmaceutically acceptable salts, as anticonvulsants can be determined in the audiogenic seizures model. The objective of this test is to evaluate the anticonvulsant potential of a compound by means of audiogenic seizures induced in sound-susceptible mice, a genetic animal model with reflex seizures. In this model of primary generalised epilepsy, seizures are evoked without electrical or chemical stimulation and the seizure types are, at least in part, similar in their clinical phenomenology to seizures occurring in man (Löscher W. & Schmidt D., Epilepsy Res. (1998), 2, p. 145-181; Buchhalter J. R., Epilepsia (1993), 34, S31-S41). Results obtained with compounds of formula I are indicative of a strong pharmacological effect.
The objective of this test is to evaluate the anticonvulsant potency of a compound in sound-susceptible mice, a genetic animal model with reflex seizures. In this model of primary generalised epilepsy, seizures are evoked without electrical or chemical stimulation and the seizure types are, at least in part, similar in their clinical phenomenology to seizures occuring in man (Löscher W. & Schmidt D., Epilepsy Res. (1998), 2, 145-181; Buchhalter J. R., Epilepsia (1993), 34, S31-S41).
Male or female genetically sound-sensitive mice (14-28 g; N=10), derived from a DBA strain originally selected by Dr. Lehmann of the Laboratory of Acoustic Physiology (Paris) and bred in the UCB Pharma Sector husbandry unit since 1978, are used. The experimental design consisted of several groups, one group receiving the vehicle control and the other groups different doses of the test-compound. The compounds are administered intraperitoneally 60 minutes before the induction of audiogenic seizures.
For testing, the animals are placed in small cages, one mouse per cage, in a sound-attenuated chamber. After a period of orientation of 30 seconds, the acoustic stimulus (90 dB, 10-20 kHz) is delivered for 30 seconds via loudspeakers positioned above each cage. During this interval, the mice are observed and the presence of the 3 phases of the seizure activity namely wild running, clonic and tonic convulsions, is recorded. The proportion of mice protected against wild running, clonic and tonic convulsions, respectively, is calculated.
For active compounds, an ED50 value, i.e. the dose producing 50% protection relative to the control group, together with 95% confidence limits, was calculated using a Probit Analysis (SAS/STAT® Software, version 6.09, PROBIT procedure) of the proportions of protected mice for each of the 3 phases of the seizure activity.

[2] = biological target: T1, Levetiracetam Binding Site (LBS), rat cerebral cortex membranes (Rattus norvegicus, UniProt Q02563); assay: LBS binding assay (competitive binding, [3H]-2-[4-(3-azidophenyl)-2-oxo-1-pyrrolidinyl]butanamide); settings: 4° C., 120 min
T1 construct: The crude membrane pellet obtained is resuspended in 50 mmol/l Tris-HCl (pH 7.4); from tissue; host or cells: rat cerebral cortex crude membranes (male Sprague-Dawley)
T1 sequence (Q02563 whole entry): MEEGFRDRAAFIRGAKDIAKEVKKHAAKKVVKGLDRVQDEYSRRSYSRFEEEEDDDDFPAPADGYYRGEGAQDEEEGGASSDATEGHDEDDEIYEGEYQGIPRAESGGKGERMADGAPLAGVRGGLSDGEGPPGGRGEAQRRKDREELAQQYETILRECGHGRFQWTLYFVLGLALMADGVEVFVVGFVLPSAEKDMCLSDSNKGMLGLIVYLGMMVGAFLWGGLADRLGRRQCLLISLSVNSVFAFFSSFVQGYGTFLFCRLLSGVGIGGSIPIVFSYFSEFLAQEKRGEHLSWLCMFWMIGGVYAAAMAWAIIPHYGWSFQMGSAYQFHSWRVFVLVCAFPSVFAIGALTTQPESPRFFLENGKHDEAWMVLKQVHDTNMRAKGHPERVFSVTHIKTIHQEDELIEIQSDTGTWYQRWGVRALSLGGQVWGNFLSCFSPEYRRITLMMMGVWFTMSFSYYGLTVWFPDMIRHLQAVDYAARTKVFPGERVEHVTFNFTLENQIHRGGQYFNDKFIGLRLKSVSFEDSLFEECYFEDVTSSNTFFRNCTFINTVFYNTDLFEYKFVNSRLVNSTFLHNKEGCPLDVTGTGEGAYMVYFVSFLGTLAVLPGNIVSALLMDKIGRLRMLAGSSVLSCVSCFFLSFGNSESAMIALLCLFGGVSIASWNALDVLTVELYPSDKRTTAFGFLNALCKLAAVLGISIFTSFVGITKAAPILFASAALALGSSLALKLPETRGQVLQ

| Molecule | ED50 (dose producing 50% protection against audiogenic seizures) [1] | pKi (affinity for the levetiracetam binding site) [2] | melting point |
| --- | --- | --- | --- |
| CCC(C(N)=O)N1CC(/C=C\F)CC1=O (centres unmarked) [Compound 162] | Particularly promising activity | Particular affinity | 105 °C |
| C=CC1CC(=O)N(C(CC)C(N)=O)C1 (centres unmarked) [Compound 41] | Particularly promising activity | Particular affinity | 120.5 °C |
| CC[C@@H](C(N)=O)N1CC(c2ccccc2OC)CC1=O (some centres unmarked) [Compound 73] | – | Particular affinity | 112 °C |
| CC[C@@H](C(N)=O)N1CC(c2ccsc2)CC1=O (some centres unmarked) [Compound 83] | – | Particular affinity | 93 to 95 °C |
| CCC(C(N)=O)N1CC(c2ccccc2F)CC1=O (centres unmarked) [Compound 209] | Particularly promising activity | Particular affinity | 123.7 °C |
| CC[C@@H](C(N)=O)N1CC(CCC(F)(F)F)CC1=O (some centres unmarked) [Compound 214] | Particularly promising activity | Particular affinity | 120.9 °C |
| C=CCC1CC(=O)N([C@@H](CC)C(N)=O)C1 (stereo partly drawn) [Compound 228, (2S)-2-(4-allyl-2-oxo-1-pyrrolidinyl)butanamide] | Particularly promising activity | Particular affinity | 58.3 °C |
| CC[C@@H](C(N)=O)N1CC(c2cccc(Br)c2)CC1=O (some centres unmarked) [Compound 180] | Particularly promising activity | Particular affinity | 99.6 °C |
| C=CCC1CC(=O)N([C@@H](CC)C(N)=O)C1 (stereo partly drawn) [Compound 224, (2S)-2-(4-allyl-2-oxo-1-pyrrolidinyl)butanamide] | Particularly promising activity | Particular affinity | 69.2 °C |
| CC[C@@H](C(N)=O)N1CC(CC2CC2)CC1=O (some centres unmarked) [Compound 221] | Particularly promising activity | Particular affinity | 93.9 °C |
| CCCC1(C)CC(=O)N([C@@H](CC)C(N)=O)C1 (some centres unmarked) [Compound 250] | Particularly promising activity | Particular affinity | 133.3 °C |
| CCC(C(N)=O)N1CC(CI)CC1=O (centres unmarked) [Compound 103] | – | Particular affinity | 171.7 °C |
| CCC(C(N)=O)N1CC(CC(C)C)CC1=O (centres unmarked) [Compound 166] | Particularly promising activity | Particular affinity | 120.2 °C |
| CCC(C(N)=O)N1CC(C#CBr)CC1=O (centres unmarked) [Compound 264] | Particularly promising activity | Particular affinity | 173.2 °C |
| CC[C@@H](C(N)=O)N1CC(CCc2ccccc2)CC1=O (some centres unmarked) [Compound 175] | – | Particular affinity | 89.5 °C |
| CC[C@@H](C(N)=O)N1CC(n2cccc2)CC1=O (single isomer, unassigned) [Compound 223, 4-pyrol-pyrrolidin-2-one] | Particularly promising activity | Particular affinity | – |
| CC[C@@H](C(N)=O)N1CC(CSC)CC1=O (some centres unmarked) [Compound 100] | Particularly promising activity | Particular affinity | – |
| CC[C@H](C(N)=O)N1CC(c2cccs2)CC1=O (some centres unmarked) | – | – | 84 °C |

| Molecule | ED50 (dose producing 50% protection against audiogenic seizures) [1] | pKi (affinity for the levetiracetam binding site) [2] | melting point |
| --- | --- | --- | --- |
| CC[C@@H](C(N)=O)N1CC(c2ccsc2)CC1=O (some centres unmarked) [Compound 88] | Particularly promising activity | Particular affinity | – |
| CCC(C(N)=O)N1CC(C=C(F)F)CC1=O (centres unmarked) [Compound 156] | Particularly promising activity | Particular affinity | – |
| CC[C@@H](C(N)=O)N1CC(n2cccc2Br)CC1=O (stereo partly drawn) [Compound 234, (2S)-2-[4-(2-bromo-1H-pyrrol-1-yl)-2-oxo-1-pyrrolidinyl]butanamide] | Particularly promising activity | Particular affinity | – |
| CC[C@@H](C(N)=O)N1CC(CF)CC1=O (some centres unmarked) | – | – | 87.1 °C |
| CCC(C(N)=O)N1CC(C#CBr)CC1=O (centres unmarked) [Compound 267, 2-(4-bromo-ethynyl-2-oxo-1-pyrrolidinyl)butanamide] | – | Particular affinity | 103.9 °C |
| CC[C@@H](C(N)=O)N1CC(C)CC1=O (some centres unmarked) [35] | – | – | 73.9 °C |
| CC[C@@H](C(N)=O)N1CC(CCc2ccccc2)CC1=O (some centres unmarked) [Compound 176] | – | Particular affinity | 100.2 °C |
| (2S)-2-[4-(iodomethyl)-2-oxo-pyrrolidin-1-yl]pentanamide [Compound 105] | Particularly promising activity | Particular affinity | – |
| CCC(C(N)=O)N1CC(CC2CC2)CC1=O (centres unmarked) [Compound 165] | Particularly promising activity | Particular affinity | – |
| CCC1CC(=O)N([C@@H](CC)C(N)=O)C1 (some centres unmarked) [Compound 152] | Particularly promising activity | Particular affinity | – |
| CCC(C(N)=O)N1C[C@H](CC(C)(F)F)CC1=O (stereo partly drawn) [Compound 265, 2-[(4S)-4-(2,2-difluoropropyl)-2-oxopyrrolidinyl]butanamide] | – | Particular affinity | 110.9 °C |
| CCCC1CC(=O)N([C@@H](CC)C(N)=O)C1 (single isomer, unassigned) [Compound 158] | Particularly promising activity | Particular affinity | – |
| 2-[4-(2,2-dibromovinyl)-2-oxo-1-pyrrolidinyl]butanamide [Compound 47] | Particularly promising activity | Particular affinity | – |
| CC[C@@H](C(N)=O)N1CC(C)CC1=O (some centres unmarked) [36] | – | – | 56.9 °C |
| CC[C@@H](C(N)=O)N1CC(c2cccc(OC)c2)CC1=O (some centres unmarked) [Compound 75] | – | Particular affinity | 91.3 °C |
| CCC(C(N)=O)N1CC(c2cc(C(F)(F)F)cc(C(F)(F)F)c2)CC1=O (centres unmarked) [Compound 185] | – | Particular affinity | 148.6 °C |
| (2S)-2-[4-(iodomethyl)-2-oxo-1-pyrrolidinyl]propanamide [Compound 110] | Particularly promising activity | Particular affinity | – |
